#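 Briefly, cells in 96-well plates were exposed to five compound concentrations for 48 h, and endpoints were estimated by linear interpolation. Abbreviation: GI50, concentration required for 50% inhibition of growth.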 The source made the active and inactive calls. No stated cut-off is given here; in the data, active = GI50 up to about 1.1 µM and inactive = higher.
# Columns and labels:
# Assay in all cases: DTP human tumour cell line panel, 48 h
# [1] = system: ACHN
# [2] = system: HT-29
# [3] = system: LOX IMVI
# [4] = system: SW-620
# [5] = system: OVCAR-4
# [6] = system: Malme-3M
# [7] = system: COLO 205
# [8] = system: SN12C
# [9] = system: NCI-H226
# [10] = system: SNB-75
# [11] = system: A498
# [12] = system: BT-549
# [13] = system: SK-MEL-28
# [14] = system: NCI/ADR-RES
# [15] = system: HL-60
# [16] = system: TK-10
# [17] = system: OVCAR-5
# [18] = system: MDA-MB-435
# [19] = system: SNB-19
# [20] = system: IGROV-1
Structure (SMILES),GI50 [1],GI50 [2],GI50 [3],GI50 [4],GI50 [5],GI50 [6],GI50 [7],GI50 [8],GI50 [9],GI50 [10],GI50 [11],GI50 [12],GI50 [13],GI50 [14],GI50 [15],GI50 [16],GI50 [17],GI50 [18],GI50 [19],GI50 [20]
COC(=O)C1=CSC2(S1)C(C(=O)OC)=CSc1c2ssc1=O (stereo not given),1.87 µM (inactive),1.81 µM (inactive),1.64 µM (inactive),1.33 µM (inactive),1.15 µM (inactive),2 µM (inactive),1.87 µM (inactive),2.12 µM (inactive),22.7 µM (inactive),3.22 µM (inactive),6.28 µM (inactive),2.7 µM (inactive),1.97 µM (inactive),2.87 µM (inactive),1.6 µM (inactive),2.42 µM (inactive),8.15 µM (inactive),1.72 µM (inactive),6.05 µM (inactive),1.66 µM (inactive)
C=C(C)[C@@H]1CCC2=C[C@H](OC2=O)[C@@]2(C)C[C@@H]2C(=O)/C=C(/C)C(=O)[C@H]1OC(C)=O,17.3 µM (inactive),11.1 µM (inactive),7.78 µM (inactive),14 µM (inactive),13 µM (inactive),12.1 µM (inactive),18.3 µM (inactive),21.5 µM (inactive),23.9 µM (inactive),38.9 µM (inactive),23.2 µM (inactive),11.4 µM (inactive),14.8 µM (inactive),26.5 µM (inactive),58.6 µM (inactive),24.5 µM (inactive),15.5 µM (inactive),13.2 µM (inactive),29.2 µM (inactive),14.1 µM (inactive)
CC(C)(C)c1cc(C2COC(=O)COCC(=O)OCCOCCOCCO2)cc(C(C)(C)C)c1O (stereo not given),19.6 µM (inactive),98.9 µM (inactive),31 µM (inactive),> 65.8 µM (inactive),> 100 µM (inactive),> 100 µM (inactive),> 100 µM (inactive),14.4 µM (inactive),> 100 µM (inactive),16.1 µM (inactive),> 51.4 µM (inactive),> 57.5 µM (inactive),19.2 µM (inactive),> 100 µM (inactive),> 31.6 µM (inactive),20.4 µM (inactive),28.4 µM (inactive),20.5 µM (inactive),> 100 µM (inactive),> 100 µM (inactive)
CCCCCCCCCCCCCCCCCC(=O)Nc1ccn(C2OC(CO)C(O)C2O)c(=O)n1 (stereo not given),4.74 µM (inactive),20.1 µM (inactive),9.89 µM (inactive),57.1 µM (inactive),> 100 µM (inactive),> 27.9 µM (inactive),61.9 µM (inactive),26.1 µM (inactive),> 90.2 µM (inactive),52.6 µM (inactive),15.3 µM (inactive),> 54.2 µM (inactive),31.9 µM (inactive),30.5 µM (inactive),3.43 µM (inactive),> 100 µM (inactive),> 70.5 µM (inactive),19.3 µM (inactive),19.4 µM (inactive),39 µM (inactive)
OC1(c2ccc(Cl)cc2)c2ccccc2C2=Nc3ccccc3CN21 (stereo not given),8.59 µM (inactive),14.8 µM (inactive),25.6 µM (inactive),26.9 µM (inactive),20.6 µM (inactive),30.5 µM (inactive),> 69.2 µM (inactive),22.2 µM (inactive),37.8 µM (inactive),17.8 µM (inactive),27.6 µM (inactive),> 100 µM (inactive),29 µM (inactive),25 µM (inactive),18.4 µM (inactive),> 95.5 µM (inactive),> 75.2 µM (inactive),79.3 µM (inactive),36.1 µM (inactive),39.2 µM (inactive)
COc1cccc2c1C(=O)c1c(O)c3c(c(O)c1C2=O)C[C@@](O)(C(C)=O)C[C@@H]3OC1CC(N(C)C)C(O)C(C)O1 (stereo not given in full),0.00337 µM (active),0.00356 µM (active),0.00223 µM (active),0.00348 µM (active),0.0306 µM (active),0.0405 µM (active),0.00428 µM (active),0.00357 µM (active),0.029 µM (active),0.00346 µM (active),0.00464 µM (active),0.00114 µM (active),0.00516 µM (active),0.0575 µM (active),0.00387 µM (active),0.00514 µM (active),0.00577 µM (active),0.000489 µM (active),0.00411 µM (active),0.00447 µM (active)
Cc1nc2ccc(NC(=S)Nc3ccccc3)cc2c(=O)n1-c1ccccc1,> 100 µM (inactive),> 100 µM (inactive),> 100 µM (inactive),76.7 µM (inactive),> 100 µM (inactive),> 100 µM (inactive),80.4 µM (inactive),> 100 µM (inactive),> 100 µM (inactive),> 100 µM (inactive),> 100 µM (inactive),> 100 µM (inactive),62.2 µM (inactive),> 100 µM (inactive),31.8 µM (inactive),> 100 µM (inactive),> 100 µM (inactive),> 100 µM (inactive),> 100 µM (inactive),> 100 µM (inactive)
Cc1nn2c(C(=O)N/N=C/c3ccc([N+](=O)[O-])cc3)c(C)nc2s1,50 µM (inactive),> 100 µM (inactive),> 100 µM (inactive),> 100 µM (inactive),> 100 µM (inactive),> 100 µM (inactive),> 100 µM (inactive),> 100 µM (inactive),> 100 µM (inactive),50.5 µM (inactive),> 100 µM (inactive),> 100 µM (inactive),> 100 µM (inactive),> 100 µM (inactive),> 100 µM (inactive),36.7 µM (inactive),> 100 µM (inactive),> 100 µM (inactive),45.9 µM (inactive),> 100 µM (inactive)
COc1ccc(NC(=O)CSc2nnc(-c3ccc(/N=C\c4ccc(Cl)cc4)cc3)o2)cc1,> 52.4 µM (inactive),42.8 µM (inactive),7.98 µM (inactive),22.1 µM (inactive),23.5 µM (inactive),34 µM (inactive),20 µM (inactive),16.1 µM (inactive),> 44.6 µM (inactive),31.6 µM (inactive),> 100 µM (inactive),17 µM (inactive),> 45.1 µM (inactive),42.3 µM (inactive),4.85 µM (inactive),> 100 µM (inactive),> 100 µM (inactive),34 µM (inactive),29.9 µM (inactive),39.5 µM (inactive)
[O-][S@@+]1c2ccc3ccccc3c2N[C@@H]2[C@H]1[C@H]1C=C[C@@H]2C1,> 100 µM (inactive),34.9 µM (inactive),31.6 µM (inactive),34 µM (inactive),23.9 µM (inactive),58.9 µM (inactive),46.6 µM (inactive),53.7 µM (inactive),50.8 µM (inactive),16.9 µM (inactive),71.6 µM (inactive),32.4 µM (inactive),98.6 µM (inactive),25.8 µM (inactive),24 µM (inactive),51.1 µM (inactive),> 100 µM (inactive),24.9 µM (inactive),> 100 µM (inactive),21.2 µM (inactive)
